Key:
Articular chondrocytes [1] = experiment: Biochemical content of constructs digested with chondroitinase ABC, then cultured with CM or TMAO, Example 4; type: cell-based, bovine
Description: (§1) Articular chondrocytes were harvested from juvenile bovine wrist joints (2-4 weeks old), and digested for 8 hrs at 37° C. with Collagenase V (Sigma) to isolate chondrocytes. The cells were expanded for one passage in DMEM media containing 10% FBS, 1% PSAM, 5 ng/ml bFGF, 10 ng/ml PDGF, and 1 ng/ml of TGF-b1 (plating density=180 cells/cm^2) (see Ng et al. 2010 Tissue Eng Part A 16(3), 1041-1051). The passaged cells were seeded in 2% w/v agarose hydrogel scaffold (Type VII, Sigma Inc.) at a concentration of 30M cells/ml. Samples were cored (diameter=4 mm, thickness=2.34 mm) and cultured in chondrogenically-defined media (CM: DMEM with 0.1 uM dexamethasone, 40 mg/mL L-proline, 50 mg/mL ascorbate 2-phosphate, […] sodium pyruvate, 1×ITS+premix, 100 U/ml penicillin, and […] streptomycin and amphotericin B) supplemented with TGF-β3 for the first 14 days. Constructs grown without TMAO served as control.
(§2) The equilibrium Young's (Eγ) and dynamic modulus was determined under 10% unconfined compression. Biochemical analysis was performed to determine the GAG, hydroxyproline (OHP) and DNA content. GAG and OHP values were normalized to the DNA content and wet weight. Tested samples were fixed for histology and stained with Picosirius Red and Safranin-O to determine the distribution of collagen and GAG, respectively. […]

Articular chondrocytes [2] = experiment: GAG and OHP content after transient application of TMAO, Example 3; type: cell-based, bovine
Description: as §1
(§3) The equilibrium Young's (Eγ) and dynamic modulus was determined under 10% unconfined compression. Biochemical analysis was performed to determine the GAG, hydroxyproline (OHP) and DNA content. GAG and OHP values were normalized to the DNA content and wet weight. Tested samples were fixed for histology and stained with Picosirius Red and Safranin-O to determine the distribution of collagen and GAG, respectively. Mechanical, biochemical and histological analysis was performed every two weeks (n=4/5). A two-way ANOVA (factors: culture day and treatment) was performed to evaluate the treatment for mechanical and biochemical analysis with a Bonferroni post hoc analysis.
Culture media was supplemented with 0 mM, 5 mM, 50 mM, 100 mM or 200 mM of TMAO for the first 14 days of culture (transient application).
Methods are according to Example 2 unless otherwise indicated. Statistical analysis included a two-way ANOVA (factors: time & concentration) with a Bonferonni post-hoc test.

Articular chondrocytes [3] = experiment: Young's and dynamic modulus after transient application of TMAO, Example 3; type: cell-based, bovine; settings: 50 mM TMAO for the first 14 days (transient); day 42
Description: as §1, §2

[4] = system: nucleus pulposus (spine tissue) cells; experiment: GAG and OHP (collagen) content of nucleus pulposus micropellets, Example 5; type: cell-based
Description: as §3
(§4) Methods are according to Example 2 unless otherwise indicated.
Micropellets (scaffold-free constructs comprised of aggregated cells only) consisting of nucleus pulposus (spine tissue) cells were cultured for […]. The media was supplement with either 5 mM or 50 mM TMAO. Micropellets cultured in CM were used as the control. Micropellets were cultured for 6 weeks and analyzed for biochemistry (i.e. GAG, DNA and OHP contents).

Articular chondrocytes [5] = experiment: Equilibrium Young's and dynamic modulus under 10% unconfined compression, Example 2; type: cell-based, bovine; settings: for mechanical properties (Young's modulus) versus control group: day 28
Description: as §1
(§5) Six culture medias were evaluated, with serum free media containing ascorbic acid and 10 ng/ml of TGF-b3 for the first 14 days used as the control (see Lima et al. 2007 Osteoarthritis Cartilage 15(9), 1025-1033). TMAO was added to the media at concentrations of 55 mM and 180 mM, and urea was added to the media at concentrations of 90 mM and 360 mM. The final group included a combination (combo) of TMAO (180 mM) and urea (360 mM).
as §3

Articular chondrocytes [6] = experiment: Biochemical analysis (GAG, OHP) and histology of constructs, Example 2; type: cell-based, bovine
Description: as §1, §5, §3

[7] = system: Immature bovine chondrocytes; experiment: Stiffness (Young's modulus) of engineered constructs cultured with supplemented media, Example 1; type: cell-based; settings: TMAO 180 or 55 mM from day 0; day 28 of culture
Description: Immature bovine chondrocytes were enzymatically isolated and encapsulated in 2% w/v type VII agarose (Sigma). Engineered cylindrical constructs were cultured in serum-free chondrogenic media (ITS+, ascorbic acid, dexamethasone, pen/strep) and transforming growth factor beta-3 (TGFβ3) for the first 14 days.
The culture media of some constructs were supplemented from day 0 with TMAO (180 or 55 mM), urea (360 or 90 mM) or TMAO+urea (combo: 360 mM urea and 180 mM TMAO which is the physiological ratio found in shark tissue).

Articular chondrocytes [8] = experiment: Equilibrium modulus of constructs digested with chondroitinase ABC, then cultured with CM or TMAO, Example 4; type: cell-based, bovine
Description: as §1, §3, §4
Mature constructs were enzymatically digested for 48 hours at day 14 with 0.15 U/mL of chondroitinase ABC (chABC), which degrades proteoglycans, then cultured with CM or CM supplemented with 5 mM of TMAO. […] Following the digestion, constructs were cultured in either CM or CM supplemented with 5 mM TMAO. A Student's t-test was performed to compare properties of the constructs cultured in CM or CM supplemented with TMAO. Significance was set at ? =0.05.

[9] = 5 mM TMAO after chABC digestion, by day 28, persisted to day 42
[10] = high concentration of urea (360 mM)
[11] = lower concentrations of urea (90 mM)

SMILES: C[N+](C)(C)[O-] [TMAO, Trimethylamine N-oxide]
- biochemical properties relative to CM alone (Articular chondrocytes [1]; [9]): significantly greater
- collagen content compared to the control (Articular chondrocytes [1]; TMAO supplement following the chABC digestion): increases the collagen content
- OHP content greater than the control values (Articular chondrocytes [2]; 100 mM TMAO, day 28): approximately 50%
- GAG content (normalized to wet weight) greater than control values (Articular chondrocytes [2]; TMAO 5 mM, 50 mM and 100 mM, day 42): up to 17%
- OHP content (normalized to the wet weight) versus control (Articular chondrocytes [2]; TMAO groups, day 28, reaching significance for 50 mM and 100 mM): greater than the control
- Young's modulus versus control group (Articular chondrocytes [3]): significantly greater than the control group
- dynamic modulus versus control group (Articular chondrocytes [3]): significantly greater than the control group
- GAG production of the micropellets ([4]; 5 mM or 50 mM TMAO, normalized by DNA content at day 42 (FIG. 9A)): graded effect
- increase in collagen production ([4]; CM supplemented with TMAO (5 mM or 50 mM), normalized by DNA content at day 42 (FIG. 9B)): 50%
- mechanical properties (Young's modulus) versus control group (Articular chondrocytes [5]; 55 mM TMAO): 2 ×
- mechanical properties (Young's modulus) versus control group (Articular chondrocytes [5]; 180 mM TMAO): 2 ×
- normalized GAG content versus control (Articular chondrocytes [6]; 55 mM TMAO, day 28): significantly greater than control
- normalized collagen content versus control (Articular chondrocytes [6]; 55 mM TMAO, day 28): significantly greater than control
- histology: distribution of GAG and collagen throughout the thickness of the construct (Articular chondrocytes [6]; 55 mM TMAO, day 28, Picosirius Red and Safranin-O): even distribution
- Young's modulus (stiffness) versus control group [7]: two-fold
- mechanical properties relative to CM alone (Articular chondrocytes [8]; [9]): significantly greater
- recovery of the mechanical properties (Articular chondrocytes [8]; TMAO supplement following the chABC digestion, compared to the control): quicker recovery
- EY (equilibrium Young's modulus) (Articular chondrocytes [8]; day 42, CM with 5 mM TMAO after chABC digestion, CM group 115.6±38.1 kPa): 235.6±75.8 kPa

SMILES: NC(N)=O [urea, reference compound]
- mechanical properties versus day 0 (Articular chondrocytes [5]; [10]): did not increase from day 0
- effect on mechanical properties (Articular chondrocytes [5]; [11]): did not have adverse effects
- biochemical properties versus day 0 (Articular chondrocytes [6]; [10]): did not increase from day 0
- effect on biochemical properties (Articular chondrocytes [6]; [11]): did not have adverse effects
